The values that follow come from article PMC9578396, “Intrinsic Antibacterial Activity of Xeruborbactam In Vitro: Assessing Spectrum and Mode of Action” (Antimicrobial Agents and Chemotherapy, 2022).

In one assay the target is T1, PBP1a (Escherichia coli, UniProt P02918).
T1 construct: Five microliters of total bacterial membrane preparation was mixed with 5 μL of a test compound; endogenous in cells; host or cells: Escherichia coli ECM5497 (MG1655), total membrane preparation
Set-up: method as in PMID 18250190. As to conditions: read-out: IC50, PBP1a; value in parentheses; E. coli MC1400; cited from earlier work.

Another assay deals with T2, PBP3 (Escherichia coli, UniProt P0AD68).
T2 construct: endogenous in cells; host or cells: Escherichia coli ECM5497 (MG1655), total membrane preparation
T2 sequence (P0AD68 whole entry): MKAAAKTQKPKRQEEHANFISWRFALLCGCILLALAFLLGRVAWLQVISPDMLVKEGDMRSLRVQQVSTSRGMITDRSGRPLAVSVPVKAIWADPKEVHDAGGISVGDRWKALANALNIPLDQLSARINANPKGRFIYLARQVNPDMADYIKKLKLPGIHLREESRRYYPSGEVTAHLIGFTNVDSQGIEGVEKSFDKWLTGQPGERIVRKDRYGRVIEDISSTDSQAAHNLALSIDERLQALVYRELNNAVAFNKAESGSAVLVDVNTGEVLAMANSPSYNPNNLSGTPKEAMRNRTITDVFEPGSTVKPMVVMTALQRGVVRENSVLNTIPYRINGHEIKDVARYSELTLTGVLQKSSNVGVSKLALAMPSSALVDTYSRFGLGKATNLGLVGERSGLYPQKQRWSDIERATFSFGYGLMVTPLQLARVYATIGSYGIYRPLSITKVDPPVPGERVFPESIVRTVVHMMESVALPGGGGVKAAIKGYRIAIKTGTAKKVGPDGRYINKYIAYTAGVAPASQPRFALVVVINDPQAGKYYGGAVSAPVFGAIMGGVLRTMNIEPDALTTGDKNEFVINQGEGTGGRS
Nature of the assay: Gel-based Bocillin FL competition PBP binding assay. The procedure:
Ten milliliters of overnight bacterial culture was inoculated in 1 L of LB medium and grown to an OD600 of 0.7 to 0.9. The cell pellet was washed once with 50 mL of solution containing 100 mM Na-phosphate at pH 7.0 and 100 mM NaCl and resuspended in 10 mL of the same buffer with one tablet of EDTA-free mini-protease inhibitor and 10 mg of lysozyme. Cell suspensions were incubated for 45 min at 37°C, and then 200 μL of DNase I was added along with MgSO4 (to a final concentration of 10 mM), followed by three cycles of freeze-thawing (10 min and 20 min, respectively). Four cycles of sonication at maximum power were performed next, each cycle lasting for 30 s with 1 min on ice between cycles. The cell suspension was centrifuged at 12,000 × g for 10 min at 4°C. The supernatant was collected and centrifuged at 100,000 × g for 45 min at 4°C. The pellet was washed three times with 10 mL of 100 mM Na-phosphate, pH 7.0, by resuspension and subsequent centrifugation at 100,000 × g for 10 min at 4°C. The pellet was finally resuspended in 1.5 mL of 100 mM Na-phosphate, pH 7.0, and passed several times through a Dounce homogenizer (tight pestle). […]
Five microliters of total bacterial membrane preparation was mixed with 5 μL of a test compound at a desired concentration in 100 mM Na-phosphate buffer, pH 7.0. […] IC50 values were calculated with Prism software (GraphPad).

T1 sequence (P02918 whole entry): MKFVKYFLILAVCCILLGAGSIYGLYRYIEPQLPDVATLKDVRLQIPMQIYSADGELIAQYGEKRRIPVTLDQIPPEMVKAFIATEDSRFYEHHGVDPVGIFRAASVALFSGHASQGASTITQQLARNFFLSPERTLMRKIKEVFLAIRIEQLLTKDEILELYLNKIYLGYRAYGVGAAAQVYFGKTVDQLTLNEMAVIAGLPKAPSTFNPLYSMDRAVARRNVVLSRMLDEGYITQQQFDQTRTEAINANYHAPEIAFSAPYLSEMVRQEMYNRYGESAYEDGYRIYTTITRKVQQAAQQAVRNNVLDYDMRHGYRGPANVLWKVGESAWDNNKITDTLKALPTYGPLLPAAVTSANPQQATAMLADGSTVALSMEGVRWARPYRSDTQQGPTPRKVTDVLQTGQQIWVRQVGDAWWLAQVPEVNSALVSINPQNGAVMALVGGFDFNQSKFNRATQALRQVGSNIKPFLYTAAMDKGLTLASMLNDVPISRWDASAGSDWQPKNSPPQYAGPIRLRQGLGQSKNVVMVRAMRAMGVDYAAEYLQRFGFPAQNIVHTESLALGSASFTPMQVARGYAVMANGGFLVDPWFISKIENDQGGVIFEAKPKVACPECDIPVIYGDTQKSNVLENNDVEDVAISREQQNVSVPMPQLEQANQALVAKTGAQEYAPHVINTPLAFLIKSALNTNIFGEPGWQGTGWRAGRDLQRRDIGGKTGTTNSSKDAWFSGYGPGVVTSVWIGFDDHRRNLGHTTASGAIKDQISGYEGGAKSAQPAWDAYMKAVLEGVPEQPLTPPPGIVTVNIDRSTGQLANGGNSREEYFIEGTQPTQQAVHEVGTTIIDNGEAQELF

Regarding `C[C@@H](O)[C@H]1C(=O)N2C(C(=O)O)=C(S[C@@H]3CN[C@H](C(=O)N(C)C)C3)[C@H](C)[C@H]12` [Meropenem], the IC50 at PBP1a was 4.4 µM. Take `O=C(O)c1c(F)ccc2c1OB(O)[C@@H]1C[C@H]21` [Xeruborbactam]: on PBP3, the IC50 stood at 73 ± 10 µM.

As usually defined, the IC50 is the midpoint of a concentration-inhibition curve.
